Test results: patent publication US20100152434A1, “Protein Kinase-binding Nucleosides and Associated Methods” (priority 2007, published 2010)
Like-named read-outs stand apart in the source and are kept apart here.

Experiments:
HL-60(TB) = test: cells; settings: Homo sapiens
HCC-2998 = test: cells; settings: Homo sapiens
EKVX = test: cells; settings: Homo sapiens
CCRF-CEM = test: cells; settings: Homo sapiens
MDA-MB-435 = test: cells; settings: Homo sapiens
IGROV1 = test: cells; settings: Homo sapiens
SK-MEL-5 [1] = test: cells; settings: Homo sapiens
OVCAR-8 = test: cells; settings: Homo sapiens
BT-549 [2] = test: cells; settings: Homo sapiens
RXF 393 = test: cells; settings: Homo sapiens
BT-549 [3] = test system: BT-549
NCI-H23 = test: cells; settings: Homo sapiens
NCI-H460 = test: cells; settings: Homo sapiens
K-562 = test: cells; settings: Homo sapiens
SK-MEL-2 = test: cells; settings: Homo sapiens
SK-MEL-5 [4] = test system: SK-MEL-5

SMILES: CNC(=O)NC[C@H]1O[C@@H](n2cnc3c(NC(=O)Nc4ccccc4)ncnc32)[C@H](O[Si](C)(C)C(C)(C)C)[C@@H]1CC(=O)N(C)OC [Compound 13, 2′-O-(tert-Butyldimethylsilyl)-3′,5′-dideoxy-3′-[(N-methoxy-N-methylcarboxamido)methyl]-5′-[(N-methylcarbamoyl)amino]-N^6-(N-phenylcarbamoyl)adenosine]
- GI50 (HL-60(TB); HL-60): 1.81 µM
- CC50 (HL-60(TB); HL-60, read-out: LC50): 16.4 µM
- GI50 (HCC-2998; HCC 2998): 30.6 µM
- CC50 (HCC-2998; HCC 2998, read-out: LC50): > 100 µM
- TGI (SF-268): >1.00E−4 Molar
- Percent Growth (SF-268; Log10 Concentration −4.0): 20%
- Percent Growth (SF-268; Log10 Concentration −5.0): 46%
- Percent Growth (SF-268; Log10 Concentration −6.0): 91%
- Percent Growth (SF-268; Log10 Concentration −7.0): 105%
- Percent Growth (SF-268; Log10 Concentration −8.0): 98%
- TGI (A498): 4.03E−5 Molar
- Percent Growth (A498; Log10 Concentration −4.0): −16%
- Percent Growth (A498; Log10 Concentration −5.0): 24%
- Percent Growth (A498; Log10 Concentration −6.0): 87%
- Percent Growth (A498; Log10 Concentration −7.0): 96%
- Percent Growth (A498; Log10 Concentration −8.0): 90%
- GI50 (EKVX): 26.4 µM
- CC50 (EKVX; read-out: LC50): > 100 µM
- TGI (UACC-257): >1.00E−4 Molar
- Percent Growth (UACC-257; Log10 Concentration −4.0): 22%
- Percent Growth (UACC-257; Log10 Concentration −5.0): 65%
- Percent Growth (UACC-257; Log10 Concentration −6.0): 102%
- Percent Growth (UACC-257; Log10 Concentration −7.0): 103%
- Percent Growth (UACC-257; Log10 Concentration −8.0): 95%
- GI50 (CCRF-CEM): 6.37 µM
- CC50 (CCRF-CEM; read-out: LC50): > 100 µM
- GI50 (MDA-MB-435; MDA-MB-435): 10.9 µM
- CC50 (MDA-MB-435; MDA-MB-435, read-out: LC50): > 100 µM
- GI50 (IGROV1; IGROV-1): 3.72 µM
- CC50 (IGROV1; IGROV-1, read-out: LC50): > 100 µM
- GI50 (SK-MEL-5 [1]; SK-MEL-5): 5.81 µM
- CC50 (SK-MEL-5 [1]; SK-MEL-5, read-out: LC50): > 100 µM
- GI50 (OVCAR-8; OVCAR-8): 9.02 µM
- CC50 (OVCAR-8; OVCAR-8, read-out: LC50): > 100 µM
- GI50 (BT-549 [2]; BT-549): 29 µM
- CC50 (BT-549 [2]; BT-549, read-out: LC50): > 100 µM
- GI50 (RXF 393; RXF 393): 9.74 µM
- CC50 (RXF 393; RXF 393, read-out: LC50): > 100 µM
- TGI (MALME-3M): >1.00E−4 Molar
- Percent Growth (MALME-3M; Log10 Concentration −4.0): 23%
- Percent Growth (MALME-3M; Log10 Concentration −5.0): 52%
- Percent Growth (MALME-3M; Log10 Concentration −6.0): 93%
- Percent Growth (MALME-3M; Log10 Concentration −7.0): 88%
- Percent Growth (MALME-3M; Log10 Concentration −8.0): 103%
- TGI (CAKI-1): >1.00E−4 Molar
- Percent Growth (CAKI-1; Log10 Concentration −4.0): 47%
- Percent Growth (CAKI-1; Log10 Concentration −5.0): 57%
- Percent Growth (CAKI-1; Log10 Concentration −6.0): 76%
- Percent Growth (CAKI-1; Log10 Concentration −7.0): 72%
- Percent Growth (CAKI-1; Log10 Concentration −8.0): 85%
- TGI (BT-549 [3]): >1.00E−4 Molar
- Percent Growth (BT-549 [3]; Log10 Concentration −4.0): 26%
- Percent Growth (BT-549 [3]; Log10 Concentration −5.0): 70%
- Percent Growth (BT-549 [3]; Log10 Concentration −6.0): 96%
- Percent Growth (BT-549 [3]; Log10 Concentration −7.0): 98%
- Percent Growth (BT-549 [3]; Log10 Concentration −8.0): 95%
- GI50 (NCI-H23; NCI-H23): 57.2 µM
- CC50 (NCI-H23; NCI-H23, read-out: LC50): > 100 µM
- TGI (OVCAR-5): >1.00E−4 Molar
- Percent Growth (OVCAR-5; Log10 Concentration −4.0): 35%
- Percent Growth (OVCAR-5; Log10 Concentration −5.0): 71%
- Percent Growth (OVCAR-5; Log10 Concentration −6.0): 92%
- Percent Growth (OVCAR-5; Log10 Concentration −7.0): 98%
- Percent Growth (OVCAR-5; Log10 Concentration −8.0): 99%
- GI50 (NCI-H460; NCI-H460): 7.49 µM
- CC50 (NCI-H460; NCI-H460, read-out: LC50): > 100 µM
- TGI (SNB-19): >1.00E−4 Molar
- Percent Growth (SNB-19; Log10 Concentration −4.0): 51%
- Percent Growth (SNB-19; Log10 Concentration −5.0): 61%
- Percent Growth (SNB-19; Log10 Concentration −6.0): 83%
- Percent Growth (SNB-19; Log10 Concentration −7.0): 93%
- Percent Growth (SNB-19; Log10 Concentration −8.0): 94%
- GI50 (K-562; K562): 3.12 µM
- CC50 (K-562; K562, read-out: LC50): > 100 µM
- GI50 (SK-MEL-2; SK-MEL-2): 14.9 µM
- CC50 (SK-MEL-2; SK-MEL-2, read-out: LC50): > 100 µM
- TGI (SR): 3.46E−6 Molar
- Percent Growth (SR; Log10 Concentration −4.0): −56%
- Percent Growth (SR; Log10 Concentration −5.0): −53%
- Percent Growth (SR; Log10 Concentration −6.0): 62%
- Percent Growth (SR; Log10 Concentration −7.0): 89%
- Percent Growth (SR; Log10 Concentration −8.0): 85%
- TGI (SK-MEL-5 [4]): >1.00E−4 Molar
- Percent Growth (SK-MEL-5 [4]; Log10 Concentration −4.0): 11%
- Percent Growth (SK-MEL-5 [4]; Log10 Concentration −5.0): 38%
- Percent Growth (SK-MEL-5 [4]; Log10 Concentration −6.0): 89%
- Percent Growth (SK-MEL-5 [4]; Log10 Concentration −7.0): 98%
- Percent Growth (SK-MEL-5 [4]; Log10 Concentration −8.0): 104%
- TGI (NCI-H522): >1.00E−4 Molar
- Percent Growth (NCI-H522; Log10 Concentration −4.0): 31%
- Percent Growth (NCI-H522; Log10 Concentration −5.0): 51%
- Percent Growth (NCI-H522; Log10 Concentration −6.0): 84%
- Percent Growth (NCI-H522; Log10 Concentration −7.0): 87%
- Percent Growth (NCI-H522; Log10 Concentration −8.0): 90%
- TGI (HCT-15): >1.00E−4 Molar
- Percent Growth (HCT-15; Log10 Concentration −4.0): 37%
- Percent Growth (HCT-15; Log10 Concentration −5.0): 40%
- Percent Growth (HCT-15; Log10 Concentration −6.0): 93%
- Percent Growth (HCT-15; Log10 Concentration −7.0): 94%
- Percent Growth (HCT-15; Log10 Concentration −8.0): 96%
